Values quoted from earlier work in patent publication US20160120870A1, “THE PROCESS FOR THE PREPARATION OF A PHARMACEUTICAL COMPOSITION COMPRISING RIVAROXABAN” (SANDOZ AG, priority 2013, published 2016).

Conditions: background prior art, drug substance

SMILES: O=C(NC[C@H]1CN(c2ccc(N3CCOCC3=O)cc2)C(=O)O1)c1ccc(Cl)s1 [Rivaroxaban, (S)-5-chloro-N-{[2-oxo-3-[4-(3-oxomorpholin-4-yl)phenyl]oxazolidin-5-yl]methyl}thiophene-2-carboxamide]
- water solubility: relatively poor
